Assay results reported in ChEMBL document CHEMBL1201862, “PubChem BioAssay data set” (2004).
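Cells were grown in 96-well plates and exposed to each compound for 48 hours at five concentrations; endpoints were interpolated linearly between bracketing concentrations, or set to the highest concentration if not reached. GI50 marks 50% less growth.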 Activity calls are given as the source filed them. Rule as the data show it: active = GI50 up to about 1.1 µM and inactive = higher.

Columns and labels:
Test in all cases: DTP human tumour cell line panel, 48 h
[1] = test system: DU-145
[2] = test system: SK-MEL-28
[3] = test system: SN12C
[4] = test system: OVCAR-4
[5] = test system: HOP-62
[6] = test system: LOX IMVI
[7] = test system: SF-268
[8] = test system: HCT-116
[9] = test system: RXF 393
[10] = test system: T47D
[11] = test system: MDA-MB-231
[12] = test system: UO-31
[13] = test system: HOP-92
[14] = test system: NCI-H460
[15] = test system: RPMI-8226
[16] = test system: NCI-H522
[17] = test system: SNB-75
[18] = test system: SK-MEL-2
[19] = test system: SR
[20] = test system: HL-60

SMILES | GI50 [1] | GI50 [2] | GI50 [3] | GI50 [4] | GI50 [5] | GI50 [6] | GI50 [7] | GI50 [8] | GI50 [9] | GI50 [10] | GI50 [11] | GI50 [12] | GI50 [13] | GI50 [14] | GI50 [15] | GI50 [16] | GI50 [17] | GI50 [18] | GI50 [19] | GI50 [20]
CO[C@@H]1[C@H](O)CC[C@]2(CO2)[C@H]1[C@@]1(C)O[C@@H]1CC=C(C)C | 140 µM (inactive) | > 200 µM (inactive) | 25 µM (inactive) | > 200 µM (inactive) | 58.2 µM (inactive) | 32.7 µM (inactive) | > 200 µM (inactive) | 84.3 µM (inactive) | > 200 µM (inactive) | > 200 µM (inactive) | 157 µM (inactive) | 83.2 µM (inactive) | > 200 µM (inactive) | 0.617 µM (active) | 185 µM (inactive) | > 200 µM (inactive) | > 200 µM (inactive) | > 200 µM (inactive) |  | 
CC(=O)OC1CC2C(=O)C(=O)C1(C)C2(C)C (stereo not drawn) | > 100 µM (inactive) | > 100 µM (inactive) | > 100 µM (inactive) | > 100 µM (inactive) | > 100 µM (inactive) |  | > 100 µM (inactive) | > 100 µM (inactive) |  | > 100 µM (inactive) | > 100 µM (inactive) | > 100 µM (inactive) | 56.6 µM (inactive) | > 100 µM (inactive) | > 100 µM (inactive) |  | > 100 µM (inactive) |  | > 100 µM (inactive) | > 10 µM (inactive)
Cc1c(C)c(C)c(-n2[nH]c(=O)n(C)c2=O)c(C)c1C | > 100 µM (inactive) | > 100 µM (inactive) | > 100 µM (inactive) |  | > 100 µM (inactive) | > 100 µM (inactive) | > 100 µM (inactive) | > 100 µM (inactive) |  | > 100 µM (inactive) | > 100 µM (inactive) | 52.5 µM (inactive) | > 100 µM (inactive) | > 100 µM (inactive) | > 100 µM (inactive) |  | > 100 µM (inactive) | > 100 µM (inactive) | > 100 µM (inactive) | > 100 µM (inactive)
O=[N+]([O-])c1ccc2nc3n(c2c1)C(c1c(F)cccc1F)SC3 (stereo not drawn) | > 100 µM (inactive) | > 100 µM (inactive) | > 100 µM (inactive) |  | > 100 µM (inactive) | > 100 µM (inactive) |  | > 100 µM (inactive) |  | > 10 µM (inactive) | > 100 µM (inactive) |  |  | > 100 µM (inactive) | > 10 µM (inactive) |  |  |  | 92.3 µM (inactive) | 
O=C(O)C1CCCN1Cc1cc2ccccc2c2ccccc12 (stereo not drawn) | > 100 µM (inactive) | > 100 µM (inactive) | > 100 µM (inactive) | > 100 µM (inactive) | > 100 µM (inactive) | > 100 µM (inactive) | > 100 µM (inactive) | > 100 µM (inactive) | > 100 µM (inactive) | > 100 µM (inactive) | > 100 µM (inactive) | > 100 µM (inactive) | > 100 µM (inactive) | > 100 µM (inactive) | > 100 µM (inactive) | > 100 µM (inactive) | > 100 µM (inactive) | > 100 µM (inactive) |  | > 100 µM (inactive)
CC1S/C(=N/c2nnc(-c3ccccc3)o2)NC1=O (stereo not drawn) | 81.3 µM (inactive) | 74.6 µM (inactive) | 36.1 µM (inactive) | 31.2 µM (inactive) | 26.7 µM (inactive) | 35.5 µM (inactive) | 34.5 µM (inactive) | 17.7 µM (inactive) | 61.7 µM (inactive) | 61.1 µM (inactive) | 43.3 µM (inactive) | 30.2 µM (inactive) | > 100 µM (inactive) |  | 49 µM (inactive) | 28 µM (inactive) |  | 69.5 µM (inactive) |  | 36.7 µM (inactive)
CC1(C)[C@@H]2C[C@H]1[C@@H](Cc1cccc(C[C@H]3c4cc(-c5ccccn5)ncc4[C@H]4C[C@@H]3C4(C)C)c1)c1cc(-c3ccccn3)ncc12 | 1.09 µM (active) | 4.92 µM (inactive) | 5.68 µM (inactive) | > 100 µM (inactive) | 17.5 µM (inactive) | 1.75 µM (inactive) | 1.97 µM (inactive) | 1.09 µM (active) | 4.39 µM (inactive) | 2.44 µM (inactive) | > 31.8 µM (inactive) | 1.22 µM (inactive) | 9.04 µM (inactive) | 0.889 µM (active) | 1.47 µM (inactive) | 8.93 µM (inactive) | > 22.8 µM (inactive) | > 100 µM (inactive) |  | 1.29 µM (inactive)
Cc1ccc(S(=O)(=O)NC(=O)NNc2ccc(F)cc2)cc1 | > 100 µM (inactive) | > 100 µM (inactive) | > 100 µM (inactive) | > 100 µM (inactive) | > 100 µM (inactive) | > 100 µM (inactive) | > 100 µM (inactive) | > 100 µM (inactive) | > 100 µM (inactive) | > 100 µM (inactive) | > 100 µM (inactive) | > 31.6 µM (inactive) | > 100 µM (inactive) | > 100 µM (inactive) | > 27 µM (inactive) | > 100 µM (inactive) |  | > 100 µM (inactive) |  | > 100 µM (inactive)
CN(C)/C=N/C1CCC(C(C)(C)C)CC1 (stereo not drawn) | 24.9 µM (inactive) | 15.9 µM (inactive) | 17.7 µM (inactive) | 18 µM (inactive) | 17.2 µM (inactive) | 15.5 µM (inactive) | 28.4 µM (inactive) | 16 µM (inactive) | 19.2 µM (inactive) | 16.4 µM (inactive) | 13.6 µM (inactive) | 16.3 µM (inactive) | 15.5 µM (inactive) | 16.7 µM (inactive) |  | 16.6 µM (inactive) | 19.5 µM (inactive) | 18.6 µM (inactive) |  | 15.3 µM (inactive)
CC(C)c1cccc(C(C)C)c1NC(=O)/C(CC(=O)CC(c1ccccc1)c1c(O)c2ccccc2oc1=O)=N/O (stereo not drawn) | > 100 µM (inactive) | > 100 µM (inactive) | > 100 µM (inactive) | > 100 µM (inactive) | > 100 µM (inactive) | > 100 µM (inactive) | > 100 µM (inactive) | > 100 µM (inactive) | > 100 µM (inactive) | > 100 µM (inactive) | > 100 µM (inactive) | > 95.9 µM (inactive) | > 100 µM (inactive) | > 100 µM (inactive) | > 100 µM (inactive) | > 100 µM (inactive) | > 100 µM (inactive) | > 100 µM (inactive) |  | > 100 µM (inactive)
O=C1OS2(OC(=O)c3cccc4cccc2c34)c2ccccc21 (stereo not drawn) | > 100 µM (inactive) | > 100 µM (inactive) | > 100 µM (inactive) | > 100 µM (inactive) | > 100 µM (inactive) | > 100 µM (inactive) | > 100 µM (inactive) | > 100 µM (inactive) | > 100 µM (inactive) | > 100 µM (inactive) | > 100 µM (inactive) | > 100 µM (inactive) | > 100 µM (inactive) |  | > 100 µM (inactive) | > 100 µM (inactive) |  | > 100 µM (inactive) |  | > 100 µM (inactive)
COc1c2cc(C(C)(C)C)cc1CSCc1cc(C(C)(C)C)cc(c1OC)CCCCC2 | 31.8 µM (inactive) | 26.5 µM (inactive) | > 50 µM (inactive) |  | > 50 µM (inactive) |  | 46.2 µM (inactive) | 27.4 µM (inactive) |  | 30 µM (inactive) | 46.8 µM (inactive) | 20.7 µM (inactive) |  | 31.6 µM (inactive) |  |  | > 50 µM (inactive) | 25.1 µM (inactive) | > 50 µM (inactive) | > 50 µM (inactive)
